Measurements published in US12029800B2, “Composite particles including anionic polymer and cationic polymer or peptide, and method for producing composite particles” (POLA CHEMICAL INDUSTRIES, INC., priority 2016, dated 2024).

Test: Test Example 3: particle diameter of composite particles after adding PBS (imitating the inside of the living body)
Type: physicochemical
Conditions: PBS 100% (the same environment as the inside of the skin), FIG. 1
Method: An aqueous solution including a composite particle of sodium hyaluronate and a cationic polymer that was each of a primary amine and a quaternary ammonium was prepared in a similar manner as in Test Example 1.
By adding a PBS buffer solution constituted of the ions that are universally found in the living body into an aqueous solution of the prepared composite particles, it was investigated how the composite particles under the environment imitating the inside environment of the living body behaved.
Specifically, PBS was added into an aqueous solution of the prepared composite particles, and the particle diameter of a composite particle in the aqueous solution was measured in a similar manner as in Test Example 2.

Substance	Particle diameter of the composite particle with sodium hyaluronate at addition amount of PBS 100%
Polylysine	particle diameter was not able to be almost measured
Protamine	particle diameter was not able to be almost measured
